Structures are written as SMILES.

For test [1], the target named is T1, recombinant human estrogen receptor ERα ligand binding domain (Homo sapiens, UniProt P03372).
T1 construct: purchased Invitrogen PV4543
T1 sequence (P03372 311-547 limits assumed): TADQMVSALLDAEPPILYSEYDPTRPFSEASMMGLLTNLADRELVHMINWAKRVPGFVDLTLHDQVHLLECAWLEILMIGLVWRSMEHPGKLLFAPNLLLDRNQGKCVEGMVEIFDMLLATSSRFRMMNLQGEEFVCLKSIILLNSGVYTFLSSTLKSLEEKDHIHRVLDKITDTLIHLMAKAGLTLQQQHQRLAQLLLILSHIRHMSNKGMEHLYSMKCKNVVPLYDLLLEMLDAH
The test is described as follows: LanthaScreen TR-FRET competition binding assay with estrogen receptor ERα ligand binding domain. The settings on record: TR-FRET competition with Fluormone ES2, ERα-LBD (GST); read-out: IC50 (nM) ER Reporter. From the text: The present invention utilizes the Lantha Screen™ Time-resolved Fluorescence Resonance Energy Transfer (TR-FRET) to assess the ability of the compounds to bind to the isolated ligand domain of estrogen receptor Era in competition assay. The fluorophore (Fluormone ES2, product code P2645) and the recombinant human estrogen receptor ERα ligand binding domain (product code PV4543) using in the TR-FRET were purchased from Invitrogen. The design principle of this assay is as follows: the estrogen receptor ERα-LBD (GST) and the fluorophore-containing ligand form a receptor/fluorophore complex, followed by the addition of terbium (Tb)-labeled anti-GST antibody (product code PV3551), the indirect labeling of the receptor is achieved by the linkage with the GST on the receptor, and the ability of competitive coordination between the test compound and the fluorescent ligand with the receptor is evaluated by detecting the attenuation of the TR-FRET effect between the chromophore (Tb-anti-GST antibody) on the fluorescent label ERα and the fluorescent ligand (Fluormone ES2). We used the following sample preparation and test methods for the test of the synthesized compounds. The instrument we used is Beckman Coulter BioPAPTR FRD microfluidic workstation.
(1) Acoustic dispense 120 nL of the test compound into a black low volume 384 well assay plates;
(2) Preparation of 1×ERα-LBD/Tb-anti-GST antibody complex in ES2 buffer and incubation therein for 20 minutes;
(3) The 1×ES2 was further added to the above ERα-LBD/Tb-anti-GST antibody complex solution before the test;
(4) 12 μL of the ERα-LBD/Tb-anti-GST antibody complex solution prepared in step 3 was added to the wells of the assay plate;
(5) The plates were shielded from light and incubated at room temperature for one hour; (6) At 337 nm excitation light, the emission light at 490 nm and 520 nm was detected by BMG Phera STAR.
The test compounds of a series of concentrations (10 mM, 0.1 mM, 1 μM and 10 nM) prepared on a microplate were transferred to the analytical plate using Labcyte Echo 550. 120 nL of DMSO solution for each test compound was added to each well of the assay plate and tested at 12 different concentrations (100, 29.17, 10.42, 2.083, 1, 0.292, 0.104, 0.02083, 0.01, 0.0029, 0.00104, 0.001 μM). The TR-FRET primitive fluorescence data was used to obtain the fitting curve software such as Origin or Genedata. Half maximal inhibitory concentration IC50 of each compound was used to characterize the competitive binding ability of the test compound with the estrogen receptor ERα. IC50 represents the concentration of the test compound that was calculated when the coordination of the tracer fluorophore (ES2) with the estrogen receptor was reduced by 50%, and the IC50 was determined as shown in Table 3.
A general note: Time-resolved FRET reads energy transfer from a long-lived donor to a nearby acceptor.

The target in test [2] is T2, ERα (Homo sapiens, UniProt P03372).
T2 construct: host or cells: MCF-7
T2 sequence (P03372 1-595): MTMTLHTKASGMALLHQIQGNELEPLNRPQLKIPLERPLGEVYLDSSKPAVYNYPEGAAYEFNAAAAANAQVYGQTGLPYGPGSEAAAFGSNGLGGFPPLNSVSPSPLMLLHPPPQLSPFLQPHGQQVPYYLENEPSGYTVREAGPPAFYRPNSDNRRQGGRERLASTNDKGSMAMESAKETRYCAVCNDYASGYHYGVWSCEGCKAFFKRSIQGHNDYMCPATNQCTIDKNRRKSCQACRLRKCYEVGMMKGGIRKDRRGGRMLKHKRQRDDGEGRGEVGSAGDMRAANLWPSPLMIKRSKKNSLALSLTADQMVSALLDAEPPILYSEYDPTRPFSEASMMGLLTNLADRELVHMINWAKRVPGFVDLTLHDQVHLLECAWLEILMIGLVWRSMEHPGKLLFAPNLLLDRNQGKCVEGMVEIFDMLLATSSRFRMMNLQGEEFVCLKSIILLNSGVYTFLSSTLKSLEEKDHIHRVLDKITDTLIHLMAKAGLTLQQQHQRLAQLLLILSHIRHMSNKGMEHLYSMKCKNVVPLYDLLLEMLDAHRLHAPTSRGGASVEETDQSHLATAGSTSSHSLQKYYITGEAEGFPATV
The test is described as follows: ERα down-regulation immunofluorescence assay in MCF-7 cells. In kind it is cell-based. The settings on record: immunofluorescence of ERα level, read-out: IC50 (nM) ERα down-degradation. The protocol: The down-regulation of the preferred compounds of the present invention on the protein level of ERα is evaluated by immunofluorescence assay using human breast cancer cell line MCF-7. MCF-7 cells used in the experiment were revived directly from frozen cells (about 5×10^6). The MCF-7 frozen cell line (Sigma D5921) purchased from Sigma was stored in DMEM medium containing 2 mM […]. 5% (v/v) Charcoal/Dextran-treated bovine serum […] were added to the revived MCF-7 cells and the cell concentration was determined using Coulter Counter.
The cells used for the test were diluted to 3.75×10^4 cells/mL with culture medium and 40 μL/well of the above cell suspension was transferred to 384-well black transparent bottom plates and incubated overnight at 37° C., 5% CO2. 10 mM compound stock solutions were diluted to a series of test concentrations (10 mM, 0.1 mM, 1 μM, 0.01 μM etc.) and dispensed into cell plates. 20 μL of 11.1% (v/v) aqueous formaldehyde solution (phosphate buffered saline) was added to each of the different concentrations of the test compounds and MCF-7 cell culture solution (40 μL), and the final concentration of formaldehyde in the solution was 3.7% (v/v). Cells were fixed at room temperature for 20 minutes, washed twice with 250 μL of PBS/Proclin, and then 40 μL of PBS/Proclin was added and refrigerated at 4° C. The immunostaining of the protein was performed using the automated AutoElisa kit. The PBS/Proclin solution was aspirated from each plate well and then 40 μL of PBS containing 0.5% Tween 20 (v/v) was added for cell permeation. After one hour, the plate was washed with 250 μL of PBS/0.05% Tween 20/Proclin for three times, and 20 μL of ERα rabbit monoclonal antibody (Thermofisher) in PBS/Tween™ 20/3% (w/v) BSA solution (1:1000) was added. The plates were incubated overnight at 4° C., washed three times with 250 μL of PBS/Tween™ 20/Proclin, and then 20 μL of goat anti-rabbit IgG AlexaFluor 594 or goat anti-rabbit IgG AlexaFluor 488 antibody (containing Hoechst stain (1:5000) in PBS/Tween™ 20/3% (w/v) BSA solution was added, and the system was incubated at room temperature for one hour. After the plates were washed three times with 250 μL of PBS/0.05% (v/v) Tween™ 20/Proclin, 20 μL of PBS was added and the paltes were kept in dark place at 4° C. The level of estrogen receptor ERα in MCF-7 cells was calculated through Cellomics Arrayscan detection of fluorescence emission intensity at two emission wave bands at 594 nm (24-hour time point) and 488 nm (5-hour time point). The average fluorescence emission intensity of each cell is positively correlated with the ERα receptor level of the cell. The primitive fluorescence data was used to obtain the fitting curve by software such as Origin or Genedata. Half maximal inhibitory concentration IC50 was used to characterize the down-regulation of estrogen receptor ERα by the test compounds, which is the concentration of the test compound when the fluorescence emission intensity is reduced to 50% of the average maximum fluorescence intensity.

As to `C[C@@H]1Cc2c([nH]c3ccccc23)[C@@H](c2c(F)cc(/C=C/C(=O)O)cc2F)N1CC1COC1` [Example 11, (E)-3-(3,5-difluoro-4-((1R,3R)-3-methyl-2-(oxetane-3-ylmethyl)-2,3,4,9-tetrahydro-1H-pyrido[3,4-b]indol-1-yl)phenyl)acrylic acid], the IC50 in test [1] is 10 to 250 nM. Moreover, the DC50 in test [2] lay in the range of 10 to 250 nM.

Turning to `C[C@@H]1Cc2c([nH]c3ccccc23)[C@@H](c2c(F)cc(/C=C/C(=O)O)cc2F)N1CC1CCCC1` [Example 3, (E)-3-(4-((1R,3R)-2-(cyclopentylmethyl)-3-methyl-2,3,4,9-tetrahydro-1H-pyrido[3,4-b]indol-1-yl)-3,5-difluorophenyl)acrylic acid], the IC50 in test [1] is 10 to 250 nM. Besides, the DC50 in test [2] lay in the range of 10 to 250 nM.

With `C[C@@H]1Cc2c([nH]c3ccccc23)[C@@H](c2c(F)cc(/C=C/C(=O)O)cc2F)N1CC1CC1` [Example 2, (E)-3-(4-((1R,3R)-2-(cyclopropylmethyl)-3-methyl-2,3,4,9-tetrahydro-1H-pyrido[3,4-b]indol-1-yl)-3,5-difluorophenyl)acrylic acid], the IC50 in test [1] was in the range of 0.1 to 10 nM. In addition, the DC50 in test [2] lay in the range of 0.1 to 10 nM.

As for `C[C@@H]1Cc2c([nH]c3ccccc23)[C@@H](c2c(F)cc(/C=C/C(=O)O)cc2F)N1CC1(F)CCCCC1` [Example 6, (E)-3-(3,5-difluoro-4-((1R,3R)-2-((1-fluorocyclohexyl)methyl)-3-methyl-2,3,4,9-tetrahydro-1H-pyrido[3,4-b]indol-1-yl)phenyl)acrylic acid], the IC50 in test [1] lay within 10 to 250 nM. Moreover, in test [2], the DC50 fell in the range of 10 to 250 nM.

As to `C[C@H]1Cc2c([nH]c3cccc(F)c23)[C@H](c2c(F)cc(/C=C/C(=O)O)cc2F)N1CC1(F)CC1` [Example 13, (E)-3-(3,5-difluoro-4-((1S,3S)-5-fluoro-2-((1-fluorocyclopropyl)methyl)-3-methyl-2,3,4,9-tetrahydro-1H-pyrido[3,4-b]indol-1-yl)phenyl)acrylic acid], in test [1], the half-maximal inhibitory concentration (IC50) fell in the range of 250 to 1000 nM. The DC50 in test [2] lay within 250 to 1000 nM.

A word on the IC50: it is the concentration needed to halve the response being measured.

The record behind these values is patent US10519148B2, “Acrylic acid derivative, preparation method and use in medicine thereof” (Zhejiang Hisun Pharmaceutical Co., Ltd., priority 2015, dated 2019).
